# Tested on: indomethacin treated rats
# Test: indomethacin-induced GI damage in rats (diarrhea and survival)
# Format: in vivo, Harlan Sprague-Dawley rats
# Conditions: Ind-CRA-1 group
# Protocol: As disclosed herein, administration of a CRA reduced the severity of GI damage in indomethacin treated rats. The effect of indomethacin administration on GI damage to rats is a well recognized model for studying the efficacy of agents that can affect GI damage (see, for example, Perkins et al., J. Pharmacol. Expt. Ther. 269:151-156 (1994)). In the model system used in the experiments described in Example I, the appearance of diarrhea and animal survival were determined following administration of indomethacin, alone, or with concurrent treatment using a cytokine regulatory agent.
# The CRA, Ac-Nle-Gln-His-(D)Phe-Arg-(D)Trp-Gly-NH2 (CRA-1), was prepared as described (U.S. Pat. No. 5,420,109, supra, 1995). Adult male Harlan Sprague-Dawley rats (325-425 g) were divided into four groups (6 rats/group). Rats were weighed every morning and food was removed prior to receiving any treatment. Two groups of rats were pretreated by intraperitoneal (ip) injection of sterile saline, alone ("control"), and the remaining two groups were pretreated by ip injection of CRA-1 (100 μg/kg in saline). Pretreatment injections were administered between 8:00-9:00 am.
# One hr following the pretreatment, one group of control rats was injected ip, on the side opposite the initial injection, with saline (Sal-control) and the other control group was injected with indomethacin (Ind-control; 10 mg/kg in saline, adjusted to pH 7.5-8.5 with NaOH). Similarly, the two groups of CRA-1 treated rats received either saline (Sal-CRA-1) or indomethacin (Ind-CRA-1). At 8 hr and 16 hr after the pretreatment, control rats and CRA-1 rats were administered saline or CRA-1, respectively. Food was returned to the rats after the 8 hr injection. This protocol was repeated for 7 days.
smiles,measurement,setting,value
"CCCC[C@H](NC(C)=O)C(=O)N[C@@H](CCC(N)=O)C(=O)N[C@@H](Cc1c[nH]cn1)C(=O)N[C@H](Cc1ccccc1)C(=O)N[C@@H](CCCNC(=N)N)C(=O)N[C@H](Cc1c[nH]c2ccccc12)C(=O)NCC(N)=O [CRA-1, Ac-Nle-Gln-His-(D)Phe-Arg-(D)Trp-Gly-NH2]",surviving rats with diarrhea by day 7,"2 of the surviving 5 rats, CRA-1 100 μg/kg ip plus indomethacin 10 mg/kg ip, all 3 surviving Ind-saline rats had diarrhea",40%
same,surviving rats with diarrhea by day 8,"3/5, CRA-1 100 μg/kg ip plus indomethacin 10 mg/kg ip",60%
same,survival by day 8,"5/6, CRA-1 100 μg/kg ip plus indomethacin 10 mg/kg ip, Ind-saline control 66.7% lethality",83.3%
same,rats with diarrhea at day 4,"6 rats, CRA-1 100 μg/kg ip (pretreatment, 8 hr and 16 hr) plus indomethacin 10 mg/kg ip daily, Ind-saline control 5 of 6 (83.3%)",none
same,rats that had died by day 7,"CRA-1 100 μg/kg ip plus indomethacin 10 mg/kg ip daily for 7 days, Ind-saline control 3 of 6 died",1 of the 6
